Laboratory results: US5686448A (priority 1995, dated 1997)
Read-outs that look alike come from different tables or passages of the source.

Tests used:
RK-13 cells = conditions: 25 mg/ml, 48 hours
[1] = Excerpt: Patient B is a person diagnosed as having both HSV type 1 (expressed as oral lesions) and HSV type 2 (expressed as penile lesions).
Patient E is a person who weighed 93 kg when they reported for treatment.
Patient K is a person who weighed 59 kg. when they reported for treatment. They were diagnosed as having HSV type 2. They described a history of lesions on the buttocks and genital region with attacks occurring monthly in cooler weather and weekly in warmer weather.

[2] = tested on: RK-13, Vero and WISH cells
[3] = tested on: Flow 1000 cells (foreskin cells); conditions: 25 mg/ml, 48 hours
Experimental: Healthy confluent monolayer cell cultures were overlaid with 1 ml of the drug and incubated for 48 hours at 37° C. and then stained. Cell cultures with maintenance media were used as controls.

With CC[N+](CC)(CC)CC.[Cl-] [TEAC, tetraethylammonium chloride] the toxicity (RK-13 cells) was “toxicity”, the side effects ([1]; Patient A, first infusion 2.8 cc) was “some blurred vision and slight dizziness on rising to the seated position” and the side effects ([1]; Patient A, second infusion 3.2 cc) was “some blurred vision”. For the same molecule, the drug related effects ([1]; Patient B, 3.7 cc (5 mg/kg)) was “blurred vision, dryness of the mouth, and unsteady gait”, the “time to cessation of drug related effects after infusion” value ([1]; Patient B, 3.7 cc (5 mg/kg)) was 10 to 15 min and the side effects ([1]; Patient C, 3.85 cc (5 mg/kg)) was “slightly blurred vision”. For the same molecule, the side effects ([1]; Patient D, 2.8 cc (5 mg/kg)) was “dry mouth and transient blurred vision”, the side effects ([1]; Patient E, 4.8 cc (5 mg/kg)) was “slightly blurred vision” and the reddening of lip ([1]; Patient G, 4.3 cc) was “some reddening of the lip”. The side effects ([1]; Patient J, 3.6 cc (5.5 mg/kg)) was “some blurred vision”, the side effects ([1]; Patient K, first infusion 3.1 cc) was “some blurred vision” and the side effects ([1]; Patient K, second infusion 3.4 cc) was “blurred vision”. For the same molecule, the “duration of feeling badly following treatment” value ([1]; Patient L, 2.9 cc (5.5 mg/kg)) was 24 to 36 h, the side effects ([1]; Patient L, 2.9 cc (5.5 mg/kg)) was “some blurred vision” and the “reversibility of toxicity (thin) / morphology changes” value ([2]; drug removed, fresh media added) was “totally reversible”. The “change in morphology or cytopathic effect” value ([2]; one to seven hours exposure) was “No change in morphology or cytopathic effect”, the “rate of growth vs cultures without TEAC” value ([2]; one to seven hours exposure) was “no difference in the rate of growth” and the toxicity to cells ([2]; one to seven hours exposure) was “not toxic to cells”. The toxicity [3] was “toxicity”.
